# From PMC5400099, “5-Hydroxyethyl-3-tetradecanoyltetramic acid represents a novel treatment for intravascular catheter infections due to Staphylococcus aureus” (Journal of Antimicrobial Chemotherapy, 2016)
# Where “and” joins values, the source holds several entries; their conditions need not be identical. Equal values may be shown once. Entries after “also recorded” stand apart in the source; their conditions may differ.
# How the values were obtained:
# [1] = tested on: IL-8 and TNF-α release in human blood; format: cell-based
# Method: EDTA-treated human blood was incubated in microtitre wells containing either S. aureus USA300 biofilm, 5HE-C14-TMA (at 256 mg/L) only or biofilm with 5HE-C14-TMA (at 256 mg/L) and incubated for 2 h at 37 °C. Plasma samples were collected by centrifugation (1000 g) and assayed for human cytokines using a Bio-Plex 200 (Bio-Rad). A standard curve was employed to maximize sensitivity for samples containing low cytokine levels. At least three different donor blood samples (with three replicates for each) were used.
# [2] = tested on: S. aureus strain BH48; test: MIC by broth microdilution (CLSI), strain BH48; format: cell-based; details: Staphylococcus aureus; BH48 (MSSA), Mueller–Hinton broth
# Method: (§1) Community-acquired MRSA (CA-MRSA) strain USA300, its isogenic agr mutant,[17] the hospital-acquired MRSA (HA-MRSA) strain BH1CC,[18] the HA-MSSA strain BH48[19] and the MSSA strain SH1000[20] were cultured in Mueller–Hinton broth for susceptibility testing or in RPMI-1640 (Gibco) for biofilm formation. For the rat jugular vein catheter infection model, the S. aureus strain USA300 (LAC) lux[21] was used.
# (§2) 5HE-C14-TMA and C14-TOA were synthesized as described previously[9] and C14-TTA as described in the Supplementary data available at JAC Online. Stock solutions of the compounds in DMSO at 10–50 mM were further diluted into tissue culture media or sodium chloride for the in vivo experiments. A DMSO solvent control was used in all in vitro experiments. The following antibiotics were used: vancomycin (Vancocin; Flynn Pharma Ltd., Republic of Ireland), daptomycin (Cubicin; Novartis, UK), gentamicin (Hospira, UK) and tigecycline (Tygacil; Pfizer Inc.). MICs were determined by broth microdilution in Mueller–Hinton broth, as recommended by the CLSI.
# [3] = MTT cell viability assay, HUVEC; format: cell-based, human; details: human, primary HUVECs (umbilical vein endothelial cells); HUVEC, MTT, 24 h
# Method: (§3) Human keratinocyte (HaCaT) cells were cultured in DMEM supplemented with 10% (v/v) FBS. Primary human umbilical vein endothelial cells (HUVECs) were cultured in EGM™-2 Bulletkit (Lonza) medium. HaCaT and HUVECs were harvested using TrypLE^TM Express (Gibco). Cells were seeded in microtitre plates at 3 × 10^5 cells/mL and incubated for 24 h at 37 °C with an antimicrobial compound ([…]) or Triton X100 at 1% (v/v). After removing the medium, cells were incubated with 500 mg/L MTT (Sigma-Aldrich) for 4 h. The crystals formed were solubilized with DMSO. Absorbance was recorded at 560 nm and the CC50 was determined.
# [4] = tested on: Primary human umbilical vein endothelial cells (HUVECs); test: MTT cell viability assay, HUVEC; format: cell-based; details: HUVECs
# Method: as §3
# [5] = Haemolysis assay; format: cell-based; details: red blood cells; human RBC; read-out: CC50 (haemolytic activity)
# Method: Human blood containing EDTA (1.6 g/L) was centrifuged at 1000 g for 5 min. Red blood cells (RBC) were washed twice with PBS, diluted 2-fold and incubated with compounds or Triton X100 (positive control) at 0.5% (v/v). A570 was determined to quantify haemolysis. IC50s were derived from the corresponding dose–response curves.
# [6] = tested on: S. aureus; details: cited from earlier work
# [7] = tested on: S. aureus USA300lux biofilm; test: Rat IVC (jugular vein catheter) biofilm infection model; format: in vivo; details: CLS 512 mg/L, 40 μL daily for 5 days
# Method: Rats (male, Sprague–Dawley) were pre-implanted with jugular vein polyurethane catheters (13.5 cm long, outside diameter 1.1 mm, inside diameter 0.6 mm) (Charles River, UK). Daily flushing was performed with 150 μL sodium chloride [0.1% (w/v)] following introduction of 40 μL heparin (100 IU), sodium chloride 0.1% (w/v) within the lumen. IVC-biofilm infection was developed as previously reported.[24–26] Catheters were inoculated with 40 μL S. aureus USA300lux suspension at 1 × 10^4 cfu/mL ‘locked’ within the catheter for 1 day. Intravenous vancomycin (50 mg/kg) was administered twice daily at 12 h intervals to prevent systemic spread of infection. CLS consisting of 5HE-C14-TMA (40 μL) at 512 mg/L in sodium chloride 0.1% (w/v) was administered daily for 5 days upon development of infection. After 5 days of treatment, catheters were removed and luminescence imaged using a Perkin Elmer IVIS Spectrum instrument (exposure, 20 s; binning: 4, f1). Bacteria were harvested from the catheters by treatment with TrypLE^TM Express (Gibco) and washing prior to determining viable counts.
# [8] = tested on: S. aureus USA300 LAC; test: Bactericidal activity (time-kill, viable counts); format: cell-based, Staphylococcus aureus; details: 8 × MIC
# Method: S. aureus USA300 LAC was grown overnight in LB medium, diluted 250-fold and grown to an OD600 0.5. Cells were diluted to 1 × 10^6 per mL in challenge medium (LB plus 5HE-C14-TMA, C14-TOA or C14-TTA at 8 × MIC). Samples were removed and viable counts determined at 30 min intervals for the first hour followed by hourly sampling. The CLSI defines a compound as bactericidal if it reduces the starting inoculum colony count by at least 99.9% (3-logs).
# [9] = tested on: S. aureus strain USA300; test: MIC by broth microdilution (CLSI), strain USA300; format: cell-based; details: Staphylococcus aureus; USA300 (MRSA), Mueller–Hinton broth
# Method: as §1, §2
# [10] = tested on: S. aureus strain SH1000; test: MIC by broth microdilution (CLSI), strain SH1000; format: cell-based; details: Staphylococcus aureus; SH1000 (MSSA), Mueller–Hinton broth
# Method: as §1, §2
# [11] = tested on: staphylococcal membrane; parameters: method as in PMID 24592914; details: binding to the staphylococcal membrane, single site model; cited from earlier work
# [12] = tested on: S. aureus strain BH1CC; test: MIC by broth microdilution (CLSI), strain BH1CC; format: cell-based; details: Staphylococcus aureus; BH1CC (MRSA), Mueller–Hinton broth
# Method: as §1, §2
# [13] = Iron chelation; format: physicochemical; details: data not shown
# [14] = tested on: MRSA (USA300 JE2 and BH1CC) and MSSA (SH1000 and BH48) strains; test: MIC by broth microdilution, MRSA and MSSA strains; format: cell-based, Staphylococcus aureus; details: MRSA and MSSA strains investigated
# Method: as §1, §2
# [15] = tested on: agr quorum sensing system; parameters: method as in PMID 24592914; details: S. aureus; cited from earlier work
# [16] = 256 mg/L for 2 h, sub-bactericidal dose
smiles,measurement,setting,value
"CCCCCCCCCCCCCC(=O)C1=C(O)N[C@@H](CCO)C1=O [5HE-C14-TMA, 5-hydroxyethyl-3-tetradecanoyltetramic acid]",IL-8 level in blood exposed to USA300 biofilm with compound,[1]; [16],substantial reductions
same,TNF-α level in blood exposed to USA300 biofilm with compound,[1]; [16],substantial reductions
same,"Cytokine levels in whole human blood, agent only","[1]; 256 mg/L, 2 h, no biofilm",no increase in cytokine levels
same,IL-8 and TNF-α levels in response to USA300 agr mutant biofilm with compound,"[1]; same dose (256 mg/L), agr mutant biofilm",no further effect
same,MIC,[2],6.25 µM and 2 µg/mL
same,CC50 at 24 h,[3],19 µM and 7 µg/mL
same,"Selectivity index (SI, CC50/MIC)",[4],3.5
same,CC50,[5],246 µM and 87 µg/mL
same,Increase in growth inhibitory activity relative to 5HE-C10-TMA,[6]; planktonic S. aureus,8 fold
same,MIC,[6]; towards S. aureus,12.5 µM
same,Catheter biofilm after CLS treatment,[7],effectively eradicated; also recorded: highly effective in the eradication of MRSA biofilm
same,Reduction of viability,"[8]; USA300, over 30 min",3 logs
same,Bactericidal activity (CLSI: at least 3-log reduction),[8]; planktonic USA300,bactericidal
same,MIC,[9],6.25 µM and 2 µg/mL
same,MIC,[10],6.25 µM and 2 µg/mL
same,Kd,[11],4 µM
same,MIC,[12],6.25 µM and 2 µg/mL
same,Iron chelation,[13],is an iron chelator
same,MIC,[14],2 µg/mL
same,MIC,[14]; Staphylococcus aureus,2 to 4 µg/mL
same,IC50,[15],14 µM
